In US20190117653A1, “SYSTEMS AND METHODS FOR TREATING BACTERIAL INFECTION” (priority 2016, published 2019):
≈ marks a conversion by molar mass, not a printed value. Where a name gives a salt, the structure may show the parent alone. Read-outs that look alike come from different tables or passages of the source.

Tests used:
E. faecalis ATCC 33186 = experiment: MIC with/without bovine pulmonary surfactant; format: cell-based; conditions: Enterococcus faecalis, ATCC33186, 2.5% v/v BPS, read-out: MIC, Resazurin: +BPS
Description: (§1) Antibacterial susceptibility testing was measured by JMI Labs (North Liberty, Iowa, USA). […] These clinical isolates were collected from US (n=4), Mexico (n=2), and Italy (n=1). Susceptibility testing was performed by broth microdilution in accordance with the Clinical and Laboratory and Standards Institute (CLSI) guidelines M07-A10 (2015) and the standard operating procedures at JMI laboratories. Minimum inhibitory concentrations (MICS) were based on CLSI criteria (2015). There are no published breakpoints for iclaprim. E. coli, K. pneumoniae, M. catarrhalis, E. faecalis, and S. aureus were tested in cation-adjusted Mueller-Hinton broth (CA-MHB). S. pneumoniae were tested in CA-MHB supplemented with 2.5-5% lysed horse blood, and H. influenza were tested in Haemophilus test medium. Quality control and interpretation of results were performed in accordance with CLSI M100-S26 (2016) methods. QC ranges for iclaprim were those approved by CLSI and published in M100-S26 (2016). Iclaprim and comparator antibiotic MIC results were within the CLSI published ranges against E. coli ATCC 25922, E. faecalis ATCC 29212, E. faecalis ATCC 33186, H. influenzae ATCC 49247, K. pneumoniae ATCC 700603 (ESBL phenotype), S. aureus ATCC 29213, and S. pneumoniae ATCC 49619. Isolates were tested with MIC panels (ThermoFisher Scientific, Cleveland, Ohio, USA) of comparator antibiotics (daptomycin and levofloxacin).
(§2) Because bovine pulmonary surfactant can introduce cloudiness to the MIC testing media, antimicrobial growth inhibition was also evaluated using the colorimetric metabolic indicator resazurin (Camlab Ltd., Cambridge, UK). […] S. pneumoniae panels were omitted from resazurin analysis because the color change was obscured by the lysed horse blood present in the test medium. Growth inhibition was then evaluated as a visible color change from blue (no growth) to pink (robust growth) and recorded as a MIC1z value.
(§3) The MICs of iclaprim, levofloxacin, and daptomycin were determined against Gram-positive and Gram-negative isolates.
(§4) A new vial of bovine pulmonary surfactant (BPS; Survanta®; Abbott Laboratories, Columbus, Ohio) was utilized for each independent experiment. Each vial was mixed thoroughly and a 100 μL aliquot was spread on an agar plate, which was incubated overnight to confirm sterility. […] The concentration of surfactant was expressed in terms of percent volume of Survanta® suspension, which consisted of phospholipid (25 mg/mL) and surfactant proteins (<1 mg/mL) in 0.9% sodium chloride solution (Goerke, 1998). MICs of daptomycin were determined in CAMHB with the Ca^2+ content adjusted to 50 mg/L.

S. aureus ATCC 29213 = experiment: MIC with/without bovine pulmonary surfactant; format: cell-based; conditions: Staphylococcus aureus
Description: as §1, §2, §3, §4

[1] = system: S. aureus Clinical Isolate 825189; experiment: MIC with/without bovine pulmonary surfactant; format: cell-based; conditions: Staphylococcus aureus
Description: as §1, §2, §3, §4

E. coli ATCC 25922 = experiment: MIC with/without bovine pulmonary surfactant; format: cell-based; conditions: Escherichia coli
Description: as §1, §2, §3, §4

male and female rats = conditions: both, rat, in vivo, 4 weeks
Description: A repeated-dose, 4-week toxicity study was conducted in male and female rats, where single, daily IV bolus doses up to 60 mg/kg were given. […] A 28-day toxicity study was also conducted in male and female marmosets, where iclaprim mesylate was infused intravenously over a 20-minute interval.

mouse = experiment: acute IV toxicity in the mouse (lowest lethal dose); format: in vivo
[2] = pH value of a 1% solution in water; format: physicochemical
Source text: The molecular formulae for iclaprim and iclaprim mesylate are […] (base) and C20H26N4O6S (mesylate), and their relative molecular masses are 354.41 (base) or 450.52 (mesylate). […] One skilled in the art can readily obtain iclaprim or iclaprim mesylate, and synthesis of these compounds is described in U.S. Pat. No. 5,773,446, the entire disclosure of which is herein incorporated by reference.

female mini-pigs = conditions: minipig, in vivo
[3] = system: nosocomial pneumonia suspected or confirmed to be caused by Gram-positive pathogens; experiment: Phase 2 study in nosocomial pneumonia, iclaprim versus vancomycin; format: in vivo, human
Source text: This MIC effect of surfactant on daptomycin activity has been reported to be mediated by binding of surfactant components to specific structures present on antibiotics, such as the lipophilic side-chain of daptomycin (Silverman et al., 2005). […] Collectively, the current in vitro study and a previous Phase 2 study support that iclaprim could be a potential treatment for pneumonia, including nosocomial pneumonia caused by susceptible and multidrug resistant Gram-positive bacteria.

S. aureus strain AH1252 = experiment: neutropenic rat lung infection model; format: in vivo, Staphylococcus aureus
Description: S. aureus strain AH1252, a thymidine knockout of the MRSA wild type AW6 strain, was utilized for this study. The bacterial strain was diluted in a 2% alginate buffer, which was added dropwise in a ratio of 1:5 into […] to form alginate beads. The alginate beads reduce the efficacy of bacterial clearance similar to that seen in the cystic fibrosis population. A 5.25×10^4 bacterial inoculum was administered to groups of 9 rats, intratracheally, with prepared alginate bacteria suspensions, under isoflurane anesthesia. […] Twelve hours after the last treatment, rats were euthanized and lungs collected for CFU determination.

[4] = system: M. catarrhalis Clinical Isolate 893806; experiment: MIC with/without bovine pulmonary surfactant; format: cell-based; conditions: Moraxella catarrhalis, 2.5% v/v BPS, read-out: MIC, Resazurin: +BPS
Description: as §1, §2, §3, §4

[5] = system: M. catarrhalis Clinical Isolate 893807; experiment: MIC with/without bovine pulmonary surfactant; format: cell-based; conditions: Moraxella catarrhalis, 2.5% v/v BPS, read-out: MIC, Resazurin: +BPS
Description: as §1, §2, §3, §4

E. faecalis ATCC 29212 = experiment: MIC with/without bovine pulmonary surfactant; format: cell-based; conditions: Enterococcus faecalis, ATCC29212, 2.5% v/v BPS, read-out: MIC, Resazurin: +BPS
Description: as §1, §2, §3, §4

[6] = ATCC29213, 2.5% v/v BPS, read-out: MIC, Resazurin: +BPS
[7] = ATCC29213, no BPS, read-out: MIC, CLSI
[8] = ATCC29213, no BPS, read-out: MIC, Resazurin
[9] = 2.5% v/v BPS, read-out: MIC, Resazurin: +BPS
[10] = no BPS, read-out: MIC, Resazurin

SMILES: C[C@H]1COc2c(N3CCN(C)CC3)c(F)cc3c(=O)c(C(=O)O)cn1c23 [levofloxacin]
- MIC (E. faecalis ATCC 33186): 2 µg/mL (≈ 5.53 µM)
- MIC (S. aureus ATCC 29213; ATCC29213, 2.5% v/v BPS, read-out: MIC, CLSI: +BPS): 0.12 µg/mL (≈ 0.332 µM)
- MIC (S. aureus ATCC 29213; [6]): 0.12 µg/mL (≈ 0.332 µM)
- MIC (S. aureus ATCC 29213; [7]): 0.25 µg/mL (≈ 0.692 µM)
- MIC (S. aureus ATCC 29213; [8]): 0.25 µg/mL (≈ 0.692 µM)
- MIC ([1]; 2.5% v/v BPS, read-out: MIC, CLSI: +BPS): 0.25 µg/mL (≈ 0.692 µM)
- MIC [1, 9]: 0.25 µg/mL (≈ 0.692 µM)
- MIC ([1]; no BPS, read-out: MIC, CLSI): 0.25 µg/mL (≈ 0.692 µM)
- MIC [1, 10]: 0.25 µg/mL (≈ 0.692 µM)
- MIC (E. coli ATCC 25922; ATCC25922, 2.5% v/v BPS, read-out: MIC, CLSI: +BPS): 0.03 µg/mL (≈ 0.083 µM)
- MIC (E. coli ATCC 25922; ATCC25922, 2.5% v/v BPS, read-out: MIC, Resazurin: +BPS): 0.03 µg/mL (≈ 0.083 µM)
- MIC (E. coli ATCC 25922; ATCC25922, no BPS, read-out: MIC, CLSI): 0.015 µg/mL (≈ 0.0415 µM)
- MIC (E. coli ATCC 25922; ATCC25922, no BPS, read-out: MIC, Resazurin): 0.015 µg/mL (≈ 0.0415 µM)

SMILES: COc1cc(Cc2cnc(N)nc2N)c2c(c1OC)OC(C1CC1)C=C2 (racemic) [iclaprim mesylate, 5-[(2RS)-2-cyclopropyl-7,8-dimethoxy-2Hchromen-5-ylmethyl] pyrimidine-2,4-diamine methanesulfonate]
- HED of NOAEL (male and female rats): 3.9 mg/kg/day
- dosage with histopathological changes at the injection sites (male and female rats): ≥ 10 mg/kg/day
- HED of lowest lethal IV dose (mouse): 6.1 mg/kg
- lowest lethal IV dose (mouse): 75 mg/kg
- pH value [2]: 4.2
- HED of maximum tolerated single IV dose (female mini-pigs): 14.6 mg/kg
- maximum tolerated single IV dose (female mini-pigs): 20 mg/kg

SMILES: CN[C@H](CC(C)C)C(=O)N[C@H]1C(=O)N[C@@H](CC(N)=O)C(=O)N[C@H]2C(=O)N[C@H]3C(=O)N[C@H](C(=O)N[C@H](C(=O)O)c4cc(O)cc(O)c4-c4cc3ccc4O)[C@H](O)c3ccc(c(Cl)c3)Oc3cc2cc(c3O[C@@H]2O[C@H](CO)[C@@H](O)[C@H](O)[C@H]2O[C@H]2C[C@](C)(N)[C@H](O)[C@H](C)O2)Oc2ccc(cc2Cl)[C@H]1O [Vancomycin, vancomycin, reference compound]
- cure rate, intent-to-treat population ([3]; vancomycin 1 g IV q12h, test of cure visit (12 of 23)): 52.2%
- death rate within 28 days of the start of treatment ([3]; vancomycin (5 of 23)): 21.7%
- 72 hour lungs log10CFU/Lung (CFU/gram of lung) (S. aureus strain AH1252; 50 mg/kg SC/BID): 5.30
- Change in CFUs from 2 hr. infection controls (S. aureus strain AH1252; 50 mg/kg SC/BID): 2.18 log 10 CFU
- Change in CFUs from 72 hr. infection controls (S. aureus strain AH1252; 50 mg/kg SC/BID): −3.38 log 10 CFU
- Survival >60 hrs (S. aureus strain AH1252; 50 mg/kg SC/BID (100 mg/kg/day) 3 days): 8/9
- CFU reduction from the 72 hour infection controls (S. aureus strain AH1252; vancomycin 50 mg/kg SC/BID): 3.38 log 10 CFU

SMILES: CCCCCCCCCC(=O)N[C@@H](Cc1c[nH]c2ccccc12)C(=O)N[C@H](CC(N)=O)C(=O)N[C@@H](CC(=O)O)C(=O)N[C@@H]1C(=O)NCC(=O)N[C@@H](CCCN)C(=O)N[C@@H](CC(=O)O)C(=O)N[C@H](C)C(=O)N[C@@H](CC(=O)O)C(=O)NCC(=O)N[C@H](CO)C(=O)N[C@@H]([C@H](C)CC(=O)O)C(=O)N[C@@H](CC(=O)c2ccccc2N)C(=O)O[C@@H]1C [daptomycin]
- MIC [4]: > 16 µg/mL
- MIC [5]: > 16 µg/mL
- MIC (E. faecalis ATCC 33186): > 16 µg/mL
- MIC (E. faecalis ATCC 29212): > 16 µg/mL
- MIC (S. aureus ATCC 29213; [6]): > 16 µg/mL
- MIC (S. aureus ATCC 29213; [7]): 0.5 µg/mL (≈ 0.309 µM)
- MIC (S. aureus ATCC 29213; [8]): 0.5 µg/mL (≈ 0.309 µM)
- MIC [1, 9]: > 16 µg/mL
- MIC [1, 10]: 0.25 µg/mL (≈ 0.154 µM)
